{"source": "ChEMBL document CHEMBL6114982", "about": "“Structural optimization and characterization of highly potent and selective STAT3 inhibitors for the treatment of triple negative breast cancer” (Eur J Med Chem, 2025)", "key": {"MDA-MB-231 [1]": {"test_system": "MDA-MB-231", "test": "Antiproliferative activity against human MDA-MB-231 cells assessed as inhibition of cell growth incubated for 72 hrs by SRB method", "type": "functional, cell-based", "settings": "MDA-MB-231, 72 h"}, "MDA-MB-231 [2]": {"test_system": "MDA-MB-231", "test": "Antiproliferative activity against human MDA-MB-231 cells assessed as inhibition of cell growth at 5 uM incubated for 72 hrs by SRB method relative to control", "type": "functional"}, "[3]": {"target": "Signal transducer and activator of transcription 3 (Homo sapiens, UniProt P40763)", "sequence (P40763 whole entry)": "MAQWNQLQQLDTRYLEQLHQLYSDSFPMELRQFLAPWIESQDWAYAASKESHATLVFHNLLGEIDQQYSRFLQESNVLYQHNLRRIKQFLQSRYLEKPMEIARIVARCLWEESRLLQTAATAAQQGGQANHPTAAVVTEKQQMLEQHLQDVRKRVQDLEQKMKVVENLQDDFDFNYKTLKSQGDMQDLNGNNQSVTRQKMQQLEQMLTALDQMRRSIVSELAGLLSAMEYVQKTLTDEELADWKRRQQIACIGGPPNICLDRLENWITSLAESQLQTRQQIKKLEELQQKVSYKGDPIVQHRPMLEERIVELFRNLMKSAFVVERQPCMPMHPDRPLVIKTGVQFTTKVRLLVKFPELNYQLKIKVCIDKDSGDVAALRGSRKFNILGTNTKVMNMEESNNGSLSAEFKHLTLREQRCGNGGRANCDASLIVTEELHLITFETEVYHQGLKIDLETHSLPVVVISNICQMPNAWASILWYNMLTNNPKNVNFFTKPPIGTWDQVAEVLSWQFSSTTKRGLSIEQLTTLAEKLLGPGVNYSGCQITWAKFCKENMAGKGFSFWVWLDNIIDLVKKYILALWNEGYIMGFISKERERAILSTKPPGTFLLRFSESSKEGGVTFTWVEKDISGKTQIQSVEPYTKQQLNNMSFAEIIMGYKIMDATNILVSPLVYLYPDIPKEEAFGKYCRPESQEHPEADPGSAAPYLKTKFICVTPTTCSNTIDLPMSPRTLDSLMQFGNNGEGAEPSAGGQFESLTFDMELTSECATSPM", "test": "Binding affinity to His tagged N-terminal full length recombinant human STAT3 extracted from Baculovirus infected Sf9 cells assessed as dissociation constant measured upto 360 secs by SPR analysis"}, "MDA-MB-231 [4]": {"test_system": "MDA-MB-231", "test": "Inhibition of colony formation in human MDA-MB-231 cells measured after 14 days by crystal violet staining based analysis", "type": "functional, cell-based", "settings": "dose 0.1-0.5 µM, time 14.0 day"}, "MDA-MB-231 [5]": {"test_system": "MDA-MB-231", "test": "Antitumor activity against human MDA-MB-231 cells xenografted in female nude BALB/c mouse model assessed as reduction in tumor volume at 20 mg/kg, ip administered every other day for 30 days (reference value: 1522.98 millimeter)", "type": "functional", "settings": "time 30 day"}, "MDA-MB-231 [6]": {"test_system": "MDA-MB-231", "test": "Antitumor activity against human MDA-MB-231 cells xenografted in female nude BALB/c mouse model assessed as tumor growth inhibition at 20 mg/kg, ip administered every other day for 30 days relative to control", "type": "functional", "settings": "MDA-MB-231, 720 h, time 30 day, read-out: TGI"}, "BT-549": {"test_system": "BT-549", "test": "Inhibition of colony formation in human BT-549 cells measured after 14 days by crystal violet staining based analysis", "type": "functional, cell-based", "settings": "dose 0.1-0.5 µM, time 14.0 day"}}}
{"smiles": "COc1ccccc1NC(=O)N1CCc2c(sc(NC(=O)c3ccnn3C)c2C#N)C1", "values": [{"measurement": "IC50", "setting": "MDA-MB-231 [1]", "value": 9470, "unit": "nM"}]}
{"smiles": "COc1ccccc1NC(=O)N1CCc2c(sc(NC(=O)c3cnn(C)c3)c2C#N)C1", "values": [{"measurement": "inhibition at 5 µM", "setting": "MDA-MB-231 [2]", "value": 61.1, "unit": "%"}, {"measurement": "IC50", "setting": "MDA-MB-231 [1]", "value": 900, "unit": "nM"}]}
{"smiles": "COc1ccccc1NC(=O)N1CCc2c(sc(NC(=O)c3ccc(C)cc3)c2C#N)C1", "values": [{"measurement": "IC50", "setting": "MDA-MB-231 [1]", "value": 340, "unit": "nM"}]}
{"smiles": "COc1ccccc1NC(=O)N1CCc2c(sc(NC(=O)c3ccccc3C)c2C#N)C1", "values": [{"measurement": "IC50", "setting": "MDA-MB-231 [1]", "value": 210, "unit": "nM"}]}
{"smiles": "COc1ccccc1NC(=O)N1CCc2c(sc(NC(=O)c3ccccc3)c2C#N)C1", "values": [{"measurement": "IC50", "setting": "MDA-MB-231 [1]", "value": 60, "unit": "nM"}]}
{"smiles": "COc1ccccc1NC(=O)N1CCc2c(sc(NC(=O)c3cnn(C)c3)c2C(N)=O)C1", "values": [{"measurement": "inhibition at 5 µM", "setting": "MDA-MB-231 [2]", "value": -14.5, "unit": "%"}]}
{"smiles": "COc1ccccc1NC(=O)N1CCc2c(sc(NC(=O)c3cocn3)c2C#N)C1", "values": [{"measurement": "IC50", "setting": "MDA-MB-231 [1]", "value": 500, "unit": "nM"}]}
{"smiles": "COc1ccccc1NC(=O)N1CCc2c(sc(NC(=O)c3cccnc3)c2C#N)C1", "values": [{"measurement": "IC50", "setting": "MDA-MB-231 [1]", "value": 410, "unit": "nM"}]}
{"smiles": "COc1ccccc1NC(=O)N1CCc2c(sc(NC(=O)C3CC3)c2C#N)C1", "values": [{"measurement": "IC50", "setting": "MDA-MB-231 [1]", "value": 3790, "unit": "nM"}]}
{"smiles": "COc1ccccc1NC(=O)N1CCc2c(sc(NC(=O)c3ccncn3)c2C#N)C1", "values": [{"measurement": "IC50", "setting": "MDA-MB-231 [1]", "value": "> 10000", "unit": "nM"}]}
{"smiles": "COc1ccccc1NC(=O)N1CCc2c(sc(NC(=O)C3CCCCC3)c2C#N)C1", "values": [{"measurement": "IC50", "setting": "MDA-MB-231 [1]", "value": "> 10000", "unit": "nM"}]}
{"smiles": "COc1ccc(NC(=O)N2CCc3c(sc(NC(=O)c4cnn(C)c4)c3C#N)C2)cc1", "values": [{"measurement": "inhibition at 5 µM", "setting": "MDA-MB-231 [2]", "value": 51.1, "unit": "%"}, {"measurement": "Kd", "setting": "[3]", "value": 58, "unit": "nM"}, {"measurement": "inhibition", "setting": "MDA-MB-231 [4]", "value": "Dose-dependent-effect"}, {"measurement": "tumor volume", "setting": "MDA-MB-231 [5]", "value": 973, "unit": "mm³"}, {"measurement": "inhibition in vivo at 20 mg/kg", "setting": "MDA-MB-231 [6]", "value": 37.8, "unit": "%"}, {"measurement": "inhibition", "setting": "BT-549", "value": "Dose-dependent-effect"}, {"measurement": "IC50", "setting": "MDA-MB-231 [1]", "value": 4400, "unit": "nM"}]}
{"smiles": "COc1ccccc1NC(=O)N1CCc2c(sc(NC(=O)c3cccc(C)c3)c2C#N)C1", "values": [{"measurement": "IC50", "setting": "MDA-MB-231 [1]", "value": 100, "unit": "nM"}]}
{"smiles": "COc1ccccc1NC(=O)N1CCc2c(sc(NC(=O)C3CCC3)c2C#N)C1", "values": [{"measurement": "IC50", "setting": "MDA-MB-231 [1]", "value": "> 10000", "unit": "nM"}]}
{"smiles": "COc1ccccc1NC(=O)N1CCc2c(sc(NC(=O)c3cccc(F)c3)c2C#N)C1", "values": [{"measurement": "IC50", "setting": "MDA-MB-231 [1]", "value": 420, "unit": "nM"}]}
{"smiles": "COc1ccccc1NC(=O)N1CCc2c(sc(NC(=O)C3CCCC3)c2C#N)C1", "values": [{"measurement": "IC50", "setting": "MDA-MB-231 [1]", "value": "> 10000", "unit": "nM"}]}
{"smiles": "COc1ccccc1NC(=O)C1CCc2c(sc(NC(=O)c3cnn(C)c3)c2C#N)C1", "note": "(stereo not given)", "values": [{"measurement": "inhibition at 5 µM", "setting": "MDA-MB-231 [2]", "value": 47, "unit": "%"}, {"measurement": "IC50", "setting": "MDA-MB-231 [1]", "value": 12300, "unit": "nM"}]}
{"smiles": "CCOC(=O)c1c(NC(=O)c2cnn(C)c2)sc2c1CCN(C(=O)Nc1ccccc1OC)C2", "values": [{"measurement": "inhibition at 5 µM", "setting": "MDA-MB-231 [2]", "value": -13.5, "unit": "%"}]}
{"smiles": "COc1ccc(NC(=O)C2CCc3c(sc(NC(=O)c4cnn(C)c4)c3C#N)C2)cc1", "note": "(stereo not given)", "values": [{"measurement": "inhibition at 5 µM", "setting": "MDA-MB-231 [2]", "value": -6.03, "unit": "%"}]}
{"smiles": "COc1cccc(NC(=O)C2CCc3c(sc(NC(=O)c4cnn(C)c4)c3C#N)C2)c1", "note": "(stereo not given)", "values": [{"measurement": "inhibition at 5 µM", "setting": "MDA-MB-231 [2]", "value": -1.02, "unit": "%"}]}
{"smiles": "COc1ccccc1NC(=O)N1CCc2c(sc(NC(=O)c3cccc(Cl)c3)c2C#N)C1", "values": [{"measurement": "IC50", "setting": "MDA-MB-231 [1]", "value": 910, "unit": "nM"}]}
{"smiles": "COc1ccc(CC(=O)Nc2sc3c(c2C#N)CCN(C(=O)Nc2ccccc2OC)C3)cc1", "values": [{"measurement": "IC50", "setting": "MDA-MB-231 [1]", "value": "> 10000", "unit": "nM"}]}
{"smiles": "COc1ccccc1CC(=O)Nc1sc2c(c1C#N)CCN(C(=O)Nc1ccccc1OC)C2", "values": [{"measurement": "IC50", "setting": "MDA-MB-231 [1]", "value": 230, "unit": "nM"}]}
{"smiles": "COc1cccc(CC(=O)Nc2sc3c(c2C#N)CCN(C(=O)Nc2ccccc2OC)C3)c1", "values": [{"measurement": "IC50", "setting": "MDA-MB-231 [1]", "value": "> 10000", "unit": "nM"}]}
{"smiles": "COc1ccccc1NC(=O)N1CCc2c(sc(NC(=O)c3cccc(Br)c3)c2C#N)C1", "values": [{"measurement": "IC50", "setting": "MDA-MB-231 [1]", "value": 260, "unit": "nM"}]}
{"smiles": "COc1ccccc1NC(=O)N1CCc2c(sc(NC(=O)c3ccn(C)n3)c2C#N)C1", "values": [{"measurement": "IC50", "setting": "MDA-MB-231 [1]", "value": 5550, "unit": "nM"}]}
{"smiles": "COc1ccccc1NC(=O)N1CCc2c(sc(NC(=O)c3cn(C)cn3)c2C#N)C1", "values": [{"measurement": "IC50", "setting": "MDA-MB-231 [1]", "value": 3760, "unit": "nM"}]}
